The results in this text go back to BindingDB's records for doi:10.1016/j.bmc.2007.01.044 (University of San Francisco, 2007).

As usually defined, the Kd is a measure of binding affinity in units of concentration.

For this assay, the target named is T1, UDP-3-O-acyl-N-acetylglucosamine deacetylase (Aquifex aeolicus (strain VF5), UniProt O67648).
T1 sequence (O67648 whole entry): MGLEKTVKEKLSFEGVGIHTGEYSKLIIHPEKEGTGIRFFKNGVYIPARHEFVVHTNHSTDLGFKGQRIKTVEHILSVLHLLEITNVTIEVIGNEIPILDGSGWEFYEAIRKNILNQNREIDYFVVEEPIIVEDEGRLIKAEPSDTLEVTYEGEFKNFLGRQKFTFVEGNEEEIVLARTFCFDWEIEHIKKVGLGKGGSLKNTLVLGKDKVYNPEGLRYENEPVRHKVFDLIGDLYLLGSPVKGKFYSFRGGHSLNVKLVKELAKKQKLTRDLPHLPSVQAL
In words: Ligand Affinity Measurements. The conditions noted are these: pH 7; 30 °C. As for the experimental part: Ligand binding to A. aeolicus LpxC was assayed by isothermal titration using isothermal microcalorimeter from Microcal, Inc. (Northampton, MA). The enzyme was stripped of all metal ions, and was reconstituted with Zn2+ (1:1 ratio) by the addition of ZnSO4. The calorimeter cell contained enzyme (40 or 60 uM), and the syringe contained ligand (250 or 400 uM). A series of 30 injections of 8 ul each were performed at 180-s intervals. Titrations of aliphatic compounds into buffer were also performed as control experiments using identical conditions. Data were fit to a single binding site model using Origin v. 2.9.

`CCCCCCCCCC(=O)O` [decanoate]: the equilibrium dissociation constant (Kd) stood at 7 µM. This lies in the single-digit micromolar range.

Molecule `CCCCCCCC(=O)O` [octanoic acid] displayed a Kd greater than 100 µM.

`CCCCCCCCCCCC(=O)O` [dodecanoate] showed a Kd of 0.9 µM.
